Data from patent US7473688B2, “Indolobenzazepine HCV NS5B inhibitors” (Bristol-Myers Squibb Company, priority 2005, dated 2009).
Read-outs that look alike come from different tables or passages of the source.

Columns and labels:
HCV NS5B = biological target: T1, HCV NS5B (Hepatitis C virus genotype 1b, UniProt Q9WMX2); test: HCV NS5B RdRp enzyme assay (preincubation protocol); format: biochemical
T1 construct: The protein was expressed with an 18 amino acid C-terminal truncation to enhance the solubility; made in house; host or cells: E. coli BL21 (DE3), pET21a
Procedure, shortened: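 Preincubation format: enzyme (14 nM, genotype 1b, 18-residue C-terminal truncation) meets diluted compound first; reaction started with bead-bound biotinylated dT12 primer, polyA template 0.2 nM and 0.29 μM 3H-UTP. Run 4 h, 30 °C in Hepes pH 7.5; scintillation proximity signal; IC50 fitted from seven inhibitor levels.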

HCV replicon = HCV replicon FRET assay; format: cell-based; settings: Hepatitis C virus, FRET assay, read-out: EC50*
Procedure, shortened: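 HCV replicon cells, with or without Renilla luciferase reporter, incubated with titrated compounds at 37 °C; Alamar blue read for cytotoxicity. NS3 protease activity read from lysates with 20 μM EDANS/DABCYL FRET peptide (340/490 nm, kinetic), or by Dual-Glo luciferase. Background from highest protease-inhibitor wells; EC50 = 50% signal reduction.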

T1 sequence (Q9WMX2 2420-2992): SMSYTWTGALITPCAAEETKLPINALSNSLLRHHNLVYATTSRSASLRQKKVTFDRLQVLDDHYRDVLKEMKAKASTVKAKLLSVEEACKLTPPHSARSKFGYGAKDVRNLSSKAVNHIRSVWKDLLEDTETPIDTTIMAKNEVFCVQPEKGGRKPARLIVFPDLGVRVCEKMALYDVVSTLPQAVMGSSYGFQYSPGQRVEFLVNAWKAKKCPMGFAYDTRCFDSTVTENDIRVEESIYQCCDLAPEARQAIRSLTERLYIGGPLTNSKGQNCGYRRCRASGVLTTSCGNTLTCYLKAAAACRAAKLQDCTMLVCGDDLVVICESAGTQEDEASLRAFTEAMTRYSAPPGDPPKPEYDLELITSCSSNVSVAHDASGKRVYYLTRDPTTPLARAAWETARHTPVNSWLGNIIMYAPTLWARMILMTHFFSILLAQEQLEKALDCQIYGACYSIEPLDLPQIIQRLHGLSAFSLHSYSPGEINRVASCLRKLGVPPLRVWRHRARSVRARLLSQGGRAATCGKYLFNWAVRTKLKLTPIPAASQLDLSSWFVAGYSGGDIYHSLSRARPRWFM

| SMILES | IC50 (HCV NS5B; Table 1b, read-out: IC50*) [nM] | EC50 (HCV replicon; Table 1b) [nM] | further results |
| --- | --- | --- | --- |
| COc1ccc2c(c1)C=C(C(=O)N1CC(OP(=O)(OC(C)(C)C)OC(C)(C)C)C1)Cn1c-2c(C2CCCCC2)c2ccc(C(=O)NS(=O)(=O)N(C)C)cc21 | 20 to 1000 | 30 to 1000 |  |
| COc1ccc2c(c1)C=C(C(=O)N1CC(N)C1)Cn1c-2c(C2CCCCC2)c2ccc(C(=O)NS(=O)(=O)N(C)C)cc21 | 20 to 1000 | 30 to 1000 |  |
| COc1ccc2c(c1)CC(C(=O)N1CCN(CCO)CC1)Cn1c-2c(C2CCCCC2)c2ccc(C(=O)NS(=O)(=O)N(C)C)cc21 (centres unmarked) | 20 to 1000 | 30 to 1000 |  |
| COc1ccc2c(c1)CC(C(=O)N1CCC(CO)CC1)Cn1c-2c(C2CCCCC2)c2ccc(C(=O)NS(=O)(=O)N(C)C)cc21 (centres unmarked) | 20 to 1000 | 30 to 1000 |  |
| COc1ccc2c(c1)C=C(C(=O)N1CC(CO)C1)Cn1c-2c(C2CCCCC2)c2ccc(C(=O)NS(=O)(=O)N(C)C)cc21 | 20 to 1000 | 30 to 1000 |  |
| COc1ccc2c(c1)C=C(C(=O)N1C[C@@H](C)N(CC3CC3)[C@@H](C)C1)Cn1c-2c(C2CCCCC2)c2ccc(C(=O)NS(=O)(=O)N(C)C)cc21 | 20 to 1000 | 30 to 1000 |  |
| COc1ccc2c(c1)C[C@H](NC(=O)N(C)CC(=O)N(C)C)Cn1c-2c(C2CCCCC2)c2ccc(C(=O)NS(=O)(=O)N(C)C)cc21 | 20 to 1000 | 30 to 1000 |  |
| COc1ccc2c(c1)C[C@@H](NC(=O)N(C)CC(=O)N(C)C)Cn1c-2c(C2CCCCC2)c2ccc(C(=O)NS(=O)(=O)N(C)C)cc21 | 20 to 1000 | 30 to 1000 |  |
| COc1ccc2c(c1)CC(C(=O)N1CC(CO)C1)Cn1c-2c(C2CCCCC2)c2ccc(C(=O)NS(=O)(=O)N(C)C)cc21 (centres unmarked) | 20 to 1000 | 30 to 1000 |  |
| COc1ccc2c(c1)C=C(C(=O)N1CC(N(C)C)C1)Cn1c-2c(C2CCCCC2)c2ccc(C(=O)NS(=O)(=O)N(C)C)cc21 | 20 to 1000 | 30 to 1000 |  |
| COc1ccc2c(c1)C=C(C(=O)N(C)Cc1ccccn1)Cn1c-2c(C2CCCCC2)c2ccc(C(=O)NS(=O)(=O)N(C)C)cc21 | 20 to 1000 | 30 to 1000 |  |
| COc1ccc2c(c1)C=C(C(=O)N1CCN(CCOCCO)CC1)Cn1c-2c(C2CCCCC2)c2ccc(C(=O)NS(=O)(=O)N(C)C)cc21 | 20 to 1000 | 30 to 1000 |  |
| COc1ccc2c(c1)CC(C(=O)N1CC(N(C)C)C1)Cn1c-2c(C2CCCCC2)c2ccc(C(=O)NS(=O)(=O)N(C)C)cc21 (centres unmarked) | 20 to 1000 | 30 to 1000 |  |
| COc1ccc2c(c1)C=C(C(=O)O)Cn1c-2c(C2CCCCC2)c2ccc(C(=O)NS(=O)(=O)N3CCN(C(C)=O)CC3)cc21 | 20 to 1000 | > 10000 |  |
| COc1ccc2c(c1)C=C(C(=O)N[C@@H]1C3CCC(C)([C@@H]1O)C3(C)C)Cn1c-2c(C2CCCCC2)c2ccc(C(=O)NS(=O)(=O)N(C)C)cc21 (some centres unmarked) | 20 to 1000 | 30 to 1000 |  |
| COc1ccc2c(c1)C=C(C(=O)N1CCN(c3ccccn3)CC1)Cn1c-2c(C2CCCCC2)c2ccc(C(=O)NS(=O)(=O)N(C)C)cc21 | 20 to 1000 | 30 to 1000 |  |
| COc1ccc2c(c1)C=C(C(=O)N1CCN(c3ncccn3)CC1)Cn1c-2c(C2CCCCC2)c2ccc(C(=O)NS(=O)(=O)N(C)C)cc21 | < 20 | 30 to 1000 |  |
| COc1ccc2c(c1)CC(C(=O)N1CCN(CCOCCO)CC1)Cn1c-2c(C2CCCCC2)c2ccc(C(=O)NS(=O)(=O)N(C)C)cc21 (centres unmarked) | 20 to 1000 | 30 to 1000 |  |
| COc1ccc2c(c1)C=C(C(=O)N1CCN(C(=O)C(C)(C)O)CC1)Cn1c-2c(C2CCCCC2)c2ccc(C(=O)NS(=O)(=O)N(C)C)cc21 | 20 to 1000 | 30 to 1000 |  |

| SMILES | IC50 (HCV NS5B; Table 1b, read-out: IC50*) [nM] | EC50 (HCV replicon; Table 1b) [nM] | further results |
| --- | --- | --- | --- |
| CON(C)S(=O)(=O)NC(=O)c1ccc2c(C3CCCCC3)c3n(c2c1)CC(C(=O)N1CCOCC1)=Cc1ccccc1-3 [drawing 100] |  |  | IC50 (HCV NS5B; Table 1, read-out: IC50*): 10 to 1000 nM; EC50 (HCV replicon; Table 1): 70 to 1000 nM |
| COc1ccc2c(c1)C=C(C(=O)N1CCOCC1)Cn1c-2c(C2CCCCC2)c2ccc(C(=O)NS(=O)(=O)N3CCOCC3)cc21 [drawing 102] |  |  | IC50 (HCV NS5B; Table 1, read-out: IC50*): 10 to 1000 nM; EC50 (HCV replicon; Table 1): 70 to 1000 nM |
| C[C@@H]1CN(CCNC(=O)C2=Cc3ccccc3-c3c(C4CCCCC4)c4ccc(C(=O)NS(=O)(=O)N(C)C)cc4n3C2)C[C@H](C)O1 [drawing 130] |  |  | IC50 (HCV NS5B; Table 1, read-out: IC50*): 10 to 1000 nM; EC50 (HCV replicon; Table 1): 70 to 1000 nM |
| CN(C)S(=O)(=O)NC(=O)c1ccc2c(C3CCCCC3)c3n(c2c1)CC(C(=O)N1CCC(N2CCOCC2)CC1)=Cc1cc(OCc2ccccc2)ccc1-3 [drawing 135] |  |  | IC50 (HCV NS5B; Table 1, read-out: IC50*): 10 to 1000 nM; EC50 (HCV replicon; Table 1): 70 to 1000 nM |
| CN(C)S(=O)(=O)NC(=O)c1ccc2c(C3CCCCC3)c3n(c2c1)CC(C(=O)N1CCCC(=O)N1)=Cc1ccccc1-3 [drawing 138] |  |  | IC50 (HCV NS5B; Table 1, read-out: IC50*): 10 to 1000 nM; EC50 (HCV replicon; Table 1): 70 to 1000 nM |
| CN(C)S(=O)(=O)NC(=O)c1ccc2c(C3CCCCC3)c3n(c2c1)CC(NC(=O)N1CCOCC1)Cc1ccccc1-3 (centres unmarked) [drawing 141] |  |  | IC50 (HCV NS5B; Table 1, read-out: IC50*): 10 to 1000 nM; EC50 (HCV replicon; Table 1): 70 to 1000 nM |
| C[C@@H]1CN(C(=O)NC2Cc3ccccc3-c3c(C4CCCCC4)c4ccc(C(=O)O)cc4n3C2)C[C@H](C)O1 (some centres unmarked) [drawing 143] |  |  | IC50 (HCV NS5B; Table 1, read-out: IC50*): 10 to 1000 nM; EC50 (HCV replicon; Table 1): 70 to 1000 nM |
| CC(=O)NN(C)C(=O)C1=Cc2ccccc2-c2c(C3CCCCC3)c3ccc(C(=O)O)cc3n2C1 [drawing 154] |  |  | IC50 (HCV NS5B; Table 1, read-out: IC50*): 10 to 1000 nM; EC50 (HCV replicon; Table 1): 1000 to 10000 nM |
| COc1ccc2c(c1)C=C(C(=O)N(C)CC(=O)N(C)C)Cn1c-2c(C2CCCCC2)c2ccc(C(=O)NS(=O)(=O)N(C)C)cc21 [drawing 162] |  |  | IC50 (HCV NS5B; Table 1, read-out: IC50*): 10 to 1000 nM; EC50 (HCV replicon; Table 1): 70 to 1000 nM |
| CN(C)S(=O)(=O)NC(=O)c1ccc2c(C3CCCCC3)c3n(c2c1)CC(C(=O)N1CCC(F)CC1)=Cc1ccccc1-3 [drawing 196] |  |  | IC50 (HCV NS5B; Table 1, read-out: IC50*): 10 to 1000 nM; EC50 (HCV replicon; Table 1): 70 to 1000 nM |
| O=C(NCc1cnn[nH]1)c1ccc2c(C3CCCCC3)c3n(c2c1)CC(C(=O)N1CCC(N2CCOCC2)CC1)=Cc1ccccc1-3 [drawing 203] |  |  | IC50 (HCV NS5B; Table 1, read-out: IC50*): 10 to 1000 nM; EC50 (HCV replicon; Table 1): 1000 to 10000 nM |
| CN(C)S(=O)(=O)NC(=O)c1ccc2c(C3CCCCC3)c3n(c2c1)CC(C(=O)N1CCCC(=O)N1)=Cc1ccccc1-3 [drawing 236] |  |  | IC50 (HCV NS5B; Table 1a, read-out: IC50*): 10 to 1000 nM; EC50 (HCV replicon; Table 1a): 30 to 1000 nM |
| COc1ccc2c(c1)C=C(C(=O)N1CCOCC1)Cn1c-2c(C2CCCCC2)c2ccc(C(=O)NS(=O)(=O)N3CCOCC3)cc21 [drawing 237] |  |  | IC50 (HCV NS5B; Table 1a, read-out: IC50*): 10 to 1000 nM; EC50 (HCV replicon; Table 1a): 30 to 1000 nM |
| COc1ccc2c(c1)C=C(C(=O)N(C)CC(=O)N(C)C)Cn1c-2c(C2CCCCC2)c2ccc(C(=O)NS(=O)(=O)N(C)C)cc21 [drawing 238] |  |  | IC50 (HCV NS5B; Table 1a, read-out: IC50*): 10 to 1000 nM; EC50 (HCV replicon; Table 1a): 30 to 1000 nM |
| COc1ccc2c(c1)C=C(C(=O)N1CCN(CC(F)(F)F)CC1)Cn1c-2c(C2CCCCC2)c2ccc(C(=O)NS(=O)(=O)N(C)C)cc21 [drawing 390] |  |  | IC50 (HCV NS5B; Table 1a, read-out: IC50*): 10 to 1000 nM; EC50 (HCV replicon; Table 1a): 30 to 1000 nM |
| O=C(NS(=O)(=O)N1CCN(CC(F)(F)F)CC1)c1ccc2c(C3CCCCC3)c3n(c2c1)CC(C(=O)N1CCOCC1)=Cc1ccccc1-3 [drawing 391] |  |  | IC50 (HCV NS5B; Table 1a, read-out: IC50*): 10 to 1000 nM; EC50 (HCV replicon; Table 1a): 30 to 1000 nM |
| COc1ccc2c(c1)C=C(C(=O)N1CCN(CC(F)(F)F)CC1)Cn1c-2c(C2CCCCC2)c2ccc(C(=O)NS(=O)(=O)N(C)C)cc21 [drawing 393] | 20 to 1000 | 30 to 1000 |  |
| O=C(NS(=O)(=O)N1CCN(CC(F)(F)F)CC1)c1ccc2c(C3CCCCC3)c3n(c2c1)CC(C(=O)N1CCOCC1)=Cc1ccccc1-3 [drawing 395] | 20 to 1000 | 30 to 1000 |  |
